17 molecules from US20200115357A1, “LIVER X RECEPTORS (LXR) MODULATORS” (Phenex-FXR GmbH, priority 2017, published 2020) can be followed below.

The target of assay [1] is T1, LXRβ ligand-binding domain (LBD) (Homo sapiens, UniProt P55055, DUP175-175).
T1 construct: LXRβ (amino acids 156-461); expressed in transfected cells; host or cells: HEK293
T1 sequence (P55055 with tags, fused parts or gaps DUP175-175): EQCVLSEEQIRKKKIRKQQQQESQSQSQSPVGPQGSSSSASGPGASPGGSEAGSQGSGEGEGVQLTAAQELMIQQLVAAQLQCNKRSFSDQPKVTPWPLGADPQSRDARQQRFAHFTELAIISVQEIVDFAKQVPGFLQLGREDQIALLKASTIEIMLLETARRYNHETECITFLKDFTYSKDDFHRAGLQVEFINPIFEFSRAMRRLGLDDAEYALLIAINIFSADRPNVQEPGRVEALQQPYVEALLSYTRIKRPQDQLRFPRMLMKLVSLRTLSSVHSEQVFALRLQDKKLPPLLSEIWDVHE
The assay can be described thus: LXR Gal4 reporter transient transfection assay (M2H), Gal4β LBD. The class given is cell-based. Particulars: HEK293 cells; for EC50: read-out: M2H Gal4β LBD activity range (EC50). Here is the method:
(§1) The tested compounds were usually dissolved, tested and stored as 20 mM stock solutions in DMSO. Since sulfonyl acetic acid derivatives tend to decarboxylate under these conditions, these stock solutions were prepared, tested and stored as 20 mM DMSO stock solutions containing 100 mM trifluoroacetic acid (5 equivalents). Sulfonyl acetic acid derivatives are shelf stable as solid at rt for long time as reported by Griesbrecht et al. (Synlett 2010:374) or Faucher et al. (J. Med. Chem. 2004; 47:18).
(§2) LXR Gal4 Reporter Transient Transfection Assays
(§3) LXRα and LXRβ activity status was determined via detection of interaction with coactivator and corepressor proteins in mammalian two-hybrid experiments (M2H). For this, via transient transfection the full length (FL) proteins of LXRα (amino acids 1-447; NP005684; SEQ ID NO:7) or LXRβ-(amino acids 1-461; NP009052; SEQ ID NO:8) or the ligand-binding domains (LBD) of LXRα (amino acids 155-447 SEQ ID NO:3) or LXRβ (amino acids 156-461; SEQ ID NO:4) were expressed from pCMV-AD (Stratagene) as fusions to the transcriptional activation domain of NFkB. As cofactors, domains of either the steroid receptor coactivator 1 (SRC1; amino acids 552-887; SEQ ID NO:5) or of the corepressor NCoR (amino acids 1903-2312 SEQ ID NO:6) were expressed as fusions to the DNA binding domain of the yeast transcription factor GAL4 (from pCMV-BD; Stratagene). Interaction was monitored via activation of a coexpressed Firefly Luciferase Reporter gene under control of a promoter containing repetitive GAL4 response elements (vector pFRLuc; Stratagene). Transfection efficiency was controlled via cotransfection of constitutively active pRL-CMV Renilla reniformis luciferase reporter (Promega). HEK293 cells were grown in minimum essential medium (MEM) with 2 mM L-glutamine and Earle's balanced salt solution supplemented with 8.3% fetal bovine serum, 0.1 mM non-essential amino acids, 1 mM sodium pyruvate, at 37° C. in 5% CO2. 3.5×10^4 cells/well were plated in 96-well cell culture plates in growth medium supplemented with 8.3% fetal bovine serum for 16-20 h to ˜90% confluency. For transfection, medium was taken off and LXR and cofactor expressing plasmids as well as the reporter plasmids are added in 30 μL OPTIMEM/well including polyethylene-imine (PEI) as vehicle. Typical amounts of plasmids transfected/well: pCMV-AD-LXR (5 ng), pCMV-BD-cofactor (5 ng), pFR-Luc (100 ng), pRL-CMV (0.5 ng). Compound stocks were prepared in DMSO, prediluted in MEM to a total volume of 120 μL, and added 4 h after addition of the transfection mixture (final vehicle concentration not exceeding 0.2%). Cells were incubated for additional 16 h, lysed for 10 min in 1× Passive Lysis Buffer (Promega) and Firefly and Renilla luciferase activities were measured sequentially in the same cell extract using buffers containing D-luciferine and coelenterazine, respectively. Measurements of luminescence were done in a BMG-Iuminometer.

Assay [2] addresses T2, LXRα ligand-binding domain (LBD) (Homo sapiens, UniProt Q13133).
T2 construct: expressed in transfected cells; host or cells: HEK293
T2 sequence (Q13133 155-447): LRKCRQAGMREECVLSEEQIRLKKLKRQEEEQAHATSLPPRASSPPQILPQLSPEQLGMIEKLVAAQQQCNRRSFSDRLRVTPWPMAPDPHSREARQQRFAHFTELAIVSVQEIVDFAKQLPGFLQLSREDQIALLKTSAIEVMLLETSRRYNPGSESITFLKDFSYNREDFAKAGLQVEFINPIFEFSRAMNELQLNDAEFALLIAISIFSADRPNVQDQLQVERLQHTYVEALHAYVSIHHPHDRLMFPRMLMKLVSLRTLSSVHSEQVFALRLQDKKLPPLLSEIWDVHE
The assay can be described thus: LXR Gal4 reporter transient transfection assay (M2H), Gal4α LBD. Particulars: HEK293 cells; for EC50: read-out: M2H Gal4α LBD activity range (EC50). Type of assay: cell-based. Here is the method:
as §1, §2, §3

The target of assay [3] is T3, GST-LXRβ ligand-binding domain (Homo sapiens, UniProt P55055, DUP175-175).
T3 construct: amino acids 156-461; NP009052; made in house; host or cells: E. coli
T3 sequence (P55055 with tags, fused parts or gaps DUP175-175): T1 sequence (P55055 with tags, fused parts or gaps DUP175-175)
As to the kind of experiment: TR-FRETβ activity assay (LXRβ-LBD / NCoA3 coactivator peptide, prestimulated with 24(S)-25-epoxycholesterol). The class given is biochemical. More on the design: key to behavior in FRET assay: ag=agonist; ia=inverse agonist. The conditions noted are these: for EC50: 1 μM 24(S)-25-epoxycholesterol as prestimulating agonist, read-out: FRETβ activity range (EC50); for behavior in FRET assay: agonist or inverse agonist. The procedure, abridged:
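E. coli-expressed GST-LXRβ LBD (aa 156-461) at 76 nM with biotinylated NCoA3 coactivator peptide (400 nM), in 240 mM KCl, BSA and Triton-X-100. Anti-GST-Tb cryptate/streptavidin-XL665 TR-FRET after 1 h equilibration at 4 °C, excitation 340 nm, emission 615 and 665 nm. Run in triplicate.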

Some results are limits rather than exact numbers.

As usually defined, the EC50 is the midpoint of the concentration-response curve. Consider `COc1ccc(-c2ccc(CN(Cc3ccc(C(F)(F)F)o3)S(=O)(=O)c3c(C)cc(C)cc3C)cc2)cc1C(C)(C)C(=O)O` [7/9], for which the EC50 was < 100 nM in assay [1], 100 to 1000 nM in assay [2] and 1000 to 10000 nM in assay [3]. For the same molecule, in assay [3], the “behavior in FRET assay” value is listed as “ia”.
`COc1ccc(C(C)(C)C(=O)O)cc1-c1ccc(CN(Cc2ccc(C(F)(F)F)o2)S(=O)(=O)c2c(C)cc(C)cc2C)cc1` [7/10]: the EC50 in assay [1] lay in the range of 100 to 1000 nM; in assay [2], 1000 to 10000 nM; in assay [3], 1000 to 10000 nM. The “behavior in FRET assay” value in assay [3] is listed as “ia”.
Regarding `Cc1cc(C)c(S(=O)(=O)N(Cc2ccc(-c3cccc([S+]([O-])CC(=O)O)c3)cc2)Cc2ccc(C(F)(F)F)o2)c(C)c1` (centres unmarked) [11/17], the EC50 in assay [1], in assay [2] and in assay [3] was 1000 to 10000 nM each time. For the same molecule, the “behavior in FRET assay” value in assay [3] was “ia”.
Consider `Cc1cc(C)c(S(=O)(=O)N(Cc2ccc(-c3cncc(C(C)(C)C(=O)O)c3)cc2)Cc2ccc(C(F)(F)F)o2)c(C)c1` [11/18], for which the EC50 is < 100 nM in assay [1], 100 to 1000 nM in assay [2] and 100 to 1000 nM in assay [3]. The “behavior in FRET assay” value in assay [3] is given as “ia”.
For `Cc1cc(C)c(S(=O)(=O)N(Cc2ccc(N3CCCC(C(C)(C)C(=O)O)C3)cc2)Cc2ccc(C(F)(F)F)o2)c(C)c1` (centres unmarked) [16/2], the EC50 is 100 to 1000 nM in assay [1], 100 to 1000 nM in assay [2] and > 10000 nM in assay [3]. The “behavior in FRET assay” value in assay [3] is reported as “ia”.
For the molecule `Cc1cc(C)c(S(=O)(=O)N(Cc2ccc(C3=CS(=O)(=O)C(CC(=O)O)=C3)cc2)Cc2ccc(C(F)(F)F)o2)c(C)c1` [25/3], the EC50 in assay [1] was in the range of 100 to 1000 nM; in assay [2], 100 to 1000 nM; in assay [3], 1000 to 10000 nM. The “behavior in FRET assay” value in assay [3] is recorded as “ia”.
Consider `Cc1cc(C)c(S(=O)(=O)N(Cc2ccc(-c3ccc(OCC(=O)O)cc3)cc2)Cc2ccc(C(F)(F)F)o2)c(C)c1` [C7/11], for which the EC50 in assay [1] was in the range of 100 to 1000 nM; in assay [2] it was 100 to 1000 nM; in assay [3] it was 1000 to 10000 nM. The “behavior in FRET assay” value in assay [3] is recorded as “ia”.
For the molecule `CCOC(=O)Cc1cccc(-c2ccc(CN(Cc3ccc(C(F)(F)F)o3)S(=O)(=O)c3c(C)cc(C)cc3C)cc2)c1` [Example 1], the EC50 was < 100 nM in assay [1], 100 to 1000 nM in assay [2] and > 10000 nM in assay [3]. In addition, the “behavior in FRET assay” value in assay [3] is reported as “ia”.
As to `Cc1cc(C)c(S(=O)(=O)N(Cc2ccc(C(F)(F)F)o2)C(C)c2ccc(-c3cccc(CC(=O)O)c3)cc2)c(C)c1` (centres unmarked) [Example 2/1], the “M2H Gal4β LBD activity range (EC50)” value in assay [1] is “inactive”. Also, in assay [2], the “M2H Gal4α LBD activity range (EC50)” value was “inactive”. Besides, in assay [3], the EC50 fell in the range of 1000 to 10000 nM and the “behavior in FRET assay” value was “ia”.
As for `Cc1cc(C)c(S(=O)(=O)N(Cc2ccc(-c3cccc(S(=O)(=O)O)c3)cc2)Cc2ccc(C(F)(F)F)o2)c(C)c1` [Example 3, 4′-(((2,4,6-Trimethyl-N-((5-(trifluoromethyl)furan-2-yl)methyl)phenyl)sulfon-amido)methyl)-[1,1′-biphenyl]-3-sulfonic acid], the “M2H Gal4β LBD activity range (EC50)” value in assay [1] is “inactive”. In assay [2], the “M2H Gal4α LBD activity range (EC50)” value was “inactive”. In assay [3], the EC50 was 1000 to 10000 nM and the “behavior in FRET assay” value is recorded as “ia”.
Turning to `CC(=O)NS(=O)(=O)c1cccc(-c2ccc(CN(Cc3ccc(C(F)(F)F)o3)S(=O)(=O)c3c(C)cc(C)cc3C)cc2)c1` [Example 3/1], the EC50 is < 100 nM in assay [1], 100 to 1000 nM in assay [2] and > 10000 nM in assay [3]. In addition, in assay [3], the “behavior in FRET assay” value is recorded as “ia”.
For `COC(=O)CS(=O)(=O)c1cccc(-c2ccc(CN(Cc3ccc(C(F)(F)F)o3)S(=O)(=O)c3c(C)cc(C)cc3C)cc2)c1` [Example 4, Methyl 2-((4′-(((2,4,6-trimethyl-N-((5-(trifluoromethyl)furan-2-yl)methyl)phenyl)sulfon-amido)methyl)-[1,1′-biphenyl]-3-yl)sulfonyl)acetate], the EC50 in assay [1] was 100 to 1000 nM; in assay [2] it was 1000 to 10000 nM; in assay [3], < 100 nM. Also, in assay [3], the “behavior in FRET assay” value is recorded as “ia”.
For `Cc1cc(C)c(S(=O)(=O)N(Cc2ccc(N3CCCN(CC(=O)O)C3=O)cc2)Cc2ccc(C(F)(F)F)o2)c(C)c1` [Example 16, 2-(2-Oxo-3-(4-(((2,4,6-trimethyl-N-((5-(trifluoromethyl)furan-2-yl)methyl)phenyl)sulfon-amido)methyl)phenyl)tetrahydropyrimidin-1(2H)-yl)acetic acid], the EC50 in assay [1] is 1000 to 10000 nM. In addition, the “M2H Gal4α LBD activity range (EC50)” value in assay [2] is “inactive”. In addition, in assay [3], the 50% effective concentration (EC50) was > 10000 nM and the “behavior in FRET assay” value was “ia”.
With `Cc1cc(C)c(S(=O)(=O)N(Cc2ccc(N3CCCC(CC(=O)O)C3=O)cc2)Cc2ccc(C(F)(F)F)o2)c(C)c1` (centres unmarked) [Example 16/1], the EC50 in assay [1] was 100 to 1000 nM; in assay [2] it was 1000 to 10000 nM; in assay [3], > 10000 nM. The “behavior in FRET assay” value in assay [3] is “ia”.
As for `Cc1cc(C)c(S(=O)(=O)N(Cc2ccc(C(F)(F)F)o2)CC2CC=C(c3cccc(C(C)(C)C(=O)O)c3)CC2)c(C)c1` (centres unmarked) [Example 19, 2-Methyl-2-(4′-(((2,4,6-trimethyl-N-((5-(trifluoromethyl)furan-2-yl)methyl)phenyl)sulfon-amido)methyl)-2′,3′,4′,5′-tetrahydro-[1,1′-biphenyl]-3-yl)propanoic acid], the EC50 in assay [1] was < 100 nM; in assay [2], 100 to 1000 nM; in assay [3] it was 100 to 1000 nM. Moreover, the “behavior in FRET assay” value in assay [3] is “ia”.
Consider `Cc1cc(C)c(S(=O)(=O)N(Cc2ccc(C(F)(F)F)o2)CC2CCC(c3cccc(C(C)(C)C(=O)O)c3)CC2)c(C)c1` (centres unmarked) [Example 19/1], for which the EC50 in assay [1] is 100 to 1000 nM; in assay [3] it was 1000 to 10000 nM. In addition, the “M2H Gal4α LBD activity range (EC50)” value in assay [2] was “inactive”. Besides, the “behavior in FRET assay” value in assay [3] is “ia”.
For the molecule `COc1cc(-c2ccc3c(c2)C(C)(C)C(=O)OC3)ccc1CN(Cc1ccc(C(F)(F)F)o1)S(=O)(=O)c1c(C)ccc2ccccc12` [Example 22, N-(4-(4,4-Dimethyl-3-oxoisochroman-6-yl)-2-methoxybenzyl)-2-methyl-N-((5-(trifluoro-methyl)furan-2-yl)methyl)naphthalene-1-sulfonamide], the EC50 in assay [1] was < 100 nM; in assay [2], 1000 to 10000 nM; in assay [3], 1000 to 10000 nM. The “behavior in FRET assay” value in assay [3] is “ia”.
